Laboratory results taken from ChEMBL document CHEMBL6134887, “Linker and Head-Group Exploration of Anti-MRSA Triaromatic Pleuromutilins” (J Med Chem, 2025).
Values after ≈ are worked out from the molar mass of the structure shown.

Legend:
Staphylococcus aureus [1] = experiment: Antibacterial activity against methicillin susceptible Staphylococcus aureus ATCC 29213 assessed as inhibition of bacterial growth incubated for 20 to 24 hrs by microbroth serial dilution method; format: functional; conditions: time 20-24 hrs, read-out: MIC100
[2] = Metabolic stability in mouse liver assessed as intrinsic clearance at 1 uM measured up to 60 mins by LC-MS/MS analysis; format: ADME, tissue-based; conditions: read-out: CLH
Staphylococcus aureus [3] = experiment: Antibacterial activity against methicillin susceptible Staphylococcus aureus ATCC 25923 assessed as inhibition of bacterial growth incubated for 20 to 24 hrs by microbroth serial dilution method; format: functional; conditions: time 20-24 hrs, read-out: MIC100
[4] = Metabolic stability in mouse liver microsomes assessed as half-life at 1 uM measured up to 60 mins by LC-MS/MS analysis; format: ADME, Microsome
Enterococcus faecium [5] = experiment: Antibacterial activity against vancomycin, ampicillin and ciprofloxacin resistant Enterococcus faecium clinical isolate 5 assessed as inhibition of bacterial growth incubated for 20 to 24 hrs by microbroth serial dilution method; format: functional; conditions: time 20-24 hrs, read-out: MIC100
Staphylococcus aureus [6] = experiment: Antibacterial activity against methicillin resistant Staphylococcus aureus clinical isolate 52518 assessed as inhibition of bacterial growth incubated for 20 to 24 hrs by microbroth serial dilution method; format: functional; conditions: time 20-24 hrs, read-out: MIC100
Caco-2 = experiment: Cytotoxicity against human Caco-2 cells assessed as reduction in cell viability at 1 to 10 uM measured after 1 to 8 days by Celltiter-Glo reagent based assay; format: toxicity; conditions: caco-2, 10 µM, dose lower 1 µM, time lower 1 day, dose upper 10 µM, time upper 8 day
Enterococcus faecium [7] = experiment: Antibacterial activity against vancomycin, ampicillin and ciprofloxacin resistant Enterococcus faecium clinical isolate 1 assessed as inhibition of bacterial growth incubated for 20 to 24 hrs by microbroth serial dilution method; format: functional; conditions: time 20-24 hrs, read-out: MIC100
MDCK-MDR1 = experiment: Cytotoxicity against MDCKII-MDR1 cells assessed as reduction in cell viability at 1 to 10 uM measured after 3 hrs by Celltiter-Glo reagent based assay; format: toxicity, Canis lupus familiaris; conditions: dog, mdck-mdr1, 3 h, dose 1-10 µM
DU-145 = experiment: Cytotoxicity against human DU-145 cells assessed as reduction in cell viability at 1 to 10 uM measured after 3 hrs by Celltiter-Glo reagent based assay; format: toxicity; conditions: du-145, 3 h, dose 1-10 µM
[8] = Metabolic stability in human liver assessed as intrinsic clearance at 1 uM measured up to 30 mins by LC-MS/MS analysis; format: ADME, tissue-based; conditions: read-out: CLH
Streptococcus pneumoniae = experiment: Antibacterial activity against Streptococcus pneumoniae assessed as inhibition of bacterial growth incubated for 20 to 24 hrs by microbroth serial dilution method; format: functional; conditions: time 20-24 hrs, read-out: MIC100
[9] = Metabolic stability in human liver microsomes assessed as half-life at 1 uM measured up to 30 mins by LC-MS/MS analysis; format: ADME, Microsome
Staphylococcus aureus [10] = experiment: Antibacterial activity against methicillin resistant Staphylococcus aureus clinical isolate 55508 assessed as inhibition of bacterial growth incubated for 20 to 24 hrs by microbroth serial dilution method; format: functional; conditions: time 20-24 hrs, read-out: MIC100
Staphylococcus aureus [11] = experiment: Antibacterial activity against methicillin resistant Staphylococcus aureus USA300 FPR3757 assessed as inhibition of bacterial growth incubated for 20 to 24 hrs by microbroth serial dilution method; format: functional; conditions: time 20-24 hrs, read-out: MIC100
Staphylococcus aureus [12] = experiment: Antibacterial activity against mupirocin resistant Staphylococcus aureus 4828 assessed as inhibition of bacterial growth incubated for 20 to 24 hrs by microbroth serial dilution method; format: functional; conditions: time 20-24 hrs, read-out: MIC100
Staphylococcus aureus [13] = experiment: Antibacterial activity against methicillin resistant Staphylococcus aureus clinical isolate 933010 assessed as inhibition of bacterial growth incubated for 20 to 24 hrs by microbroth serial dilution method; format: functional; conditions: time 20-24 hrs, read-out: MIC100
Enterococcus faecalis = experiment: Antibacterial activity against Enterococcus faecalis assessed as inhibition of bacterial growth incubated for 20 to 24 hrs by microbroth serial dilution method; format: functional; conditions: time 20-24 hrs, read-out: MIC100
[14] = Toxicity in female BALB/cJRj mouse model of skin infection infected with Staphylococcus aureus ATCC 29213 assessed as skin toxicity at 2 % administered twice daily at 6 hrs interval as cream formulation and measured on day 4; conditions: in vivo, topical_or_ocular, 96 h, route top, time 4 day
[15] = Toxicity in female BALB/cJRj mouse model of skin infection infected with Staphylococcus aureus ATCC 29213 assessed as skin irritation at 2 % administered twice daily at 6 hrs interval as cream formulation and measured on day 4; conditions: in vivo, topical_or_ocular, 96 h, route top, time 4 day
Staphylococcus aureus [16] = experiment: Antibacterial activity against Staphylococcus aureus ATCC 29213 infected in skin infection female BALB/cJRj mouse model assessed as reduction in bacterial load in wound at 2 % administered twice daily at 6 hrs interval as cream formulation and measured on day 4 (reference value: 5.3 x 10^3 CFU/ml); format: functional; conditions: route top, time 4 day
Staphylococcus aureus [17] = experiment: Antibacterial activity against Staphylococcus aureus ATCC 29213 infected in skin infection female BALB/cJRj mouse model assessed as reduction in bacterial load in wound at 2 % administered twice daily at 6 hrs interval as cream formulation and measured on day 1; format: functional; conditions: route top, time 1 day
Staphylococcus aureus [18] = experiment: Antibacterial activity against Staphylococcus aureus ATCC 29213 infected in skin infection female BALB/cJRj mouse model assessed as reduction in bacterial load in wound at 2 % administered twice daily at 6 hrs interval as cream formulation and measured on day 5; format: functional; conditions: route top, time 5 day

| SMILES | MIC (Staphylococcus aureus [1]) [µg/mL] | CLint scaled at 1 µM [2] [L/h/kg] | MIC (Staphylococcus aureus [3]) [µg/mL] | half-life at 1 µM [4] [s] | MIC (Enterococcus faecium [5]) [µg/mL] | MIC (Staphylococcus aureus [6]) [µg/mL] | Activity (Caco-2) | MIC (Enterococcus faecium [7]) [µg/mL] | Activity (MDCK-MDR1) | Activity (DU-145) | CLint scaled at 1 µM [8] [L/h/kg] | MIC (Streptococcus pneumoniae) [µg/mL] | half-life at 1 µM [9] [s] | MIC (Staphylococcus aureus [10]) [µg/mL] | MIC (Staphylococcus aureus [11]) [µg/mL] | MIC (Staphylococcus aureus [12]) [µg/mL] | MIC (Staphylococcus aureus [13]) [µg/mL] | MIC (Enterococcus faecalis) [µg/mL] | further results |
| --- | --- | --- | --- | --- | --- | --- | --- | --- | --- | --- | --- | --- | --- | --- | --- | --- | --- | --- | --- |
| C=C[C@]1(C)C[C@@H](OC(=O)Cn2cc(-c3cccc(Nc4cc(N)ncn4)c3)nn2)[C@]2(C)[C@H](C)CC[C@]3(CCC(=O)[C@H]32)[C@@H](C)[C@@H]1O | 0.015 (≈ 0.0244 µM) | 434 | 0.25 (≈ 0.407 µM) | 45.6 | 0.25 (≈ 0.407 µM) | 0.06 (≈ 0.0978 µM) | Non-toxic | 0.25 (≈ 0.407 µM) | Non-toxic | Non-toxic | 94.9 | 1 (≈ 1.63 µM) | 234 | 0.12 (≈ 0.196 µM) | 0.03 (≈ 0.0489 µM) | 0.12 (≈ 0.196 µM) | 0.12 (≈ 0.196 µM) | 0.5 (≈ 0.815 µM) |  |
| C=C[C@]1(C)C[C@@H](OC(=O)Cn2cc(-c3ccc(Cn4cnc5c(N)ncnc54)nc3)nn2)[C@]2(C)[C@H](C)CC[C@]3(CCC(=O)[C@H]32)[C@@H](C)[C@@H]1O | 0.06 (≈ 0.0918 µM) | 571 | 0.06 (≈ 0.0918 µM) | 34.8 |  |  |  |  |  |  |  |  |  |  |  |  |  |  |  |
| C=C[C@]1(C)C[C@@H](OC(=O)Cn2cc(-c3ccc(Cn4ccc5c(N)ncnc54)nc3)nn2)[C@]2(C)[C@H](C)CC[C@]3(CCC(=O)[C@H]32)[C@@H](C)[C@@H]1O | 0.015 (≈ 0.023 µM) | 566 | 0.06 (≈ 0.0919 µM) | 34.8 | 0.03 (≈ 0.046 µM) | < 0.015 | Non-toxic | 0.015 (≈ 0.023 µM) | Non-toxic | Non-toxic | 199 |  | 114 | < 0.015 | 0.015 (≈ 0.023 µM) | < 0.015 | 0.03 (≈ 0.046 µM) |  | Activity [14]: Non-toxic; Activity [15]: Non-toxic; Activity (Staphylococcus aureus [16]): 2.5 log10CFU/ml; Activity (Staphylococcus aureus [17]): 5.4 10^5CFU/ml; Activity (Staphylococcus aureus [18]): 1.5 10^7CFU/ml |
| C=C[C@]1(C)C[C@@H](OC(=O)Cn2cc(-c3cccc(Nc4ncnc5[nH]cnc45)c3)nn2)[C@]2(C)[C@H](C)CC[C@]3(CCC(=O)[C@H]32)[C@@H](C)[C@@H]1O |  | 489 |  | 40.2 | 0.25 (≈ 0.391 µM) |  |  | 0.25 (≈ 0.391 µM) |  |  | 188 | 0.5 (≈ 0.783 µM) | 120 |  | 0.06 (≈ 0.0939 µM) |  |  | 0.5 (≈ 0.783 µM) |  |
| C=C[C@]1(C)C[C@@H](OC(=O)Cn2cc(-c3cccc(NC(=O)c4ccc(OC)cc4)c3)nn2)[C@]2(C)[C@H](C)CC[C@]3(CCC(=O)[C@H]32)[C@@H](C)[C@@H]1O |  |  |  |  | 0.25 (≈ 0.382 µM) |  |  | 0.12 (≈ 0.183 µM) |  |  |  | 0.25 (≈ 0.382 µM) |  |  | 0.12 (≈ 0.183 µM) |  |  | 0.5 (≈ 0.764 µM) |  |
| C=C[C@]1(C)C[C@@H](OC(=O)Cn2cc(-c3cncc(C(=O)Nc4ccc(OC)nc4)c3)nn2)[C@]2(C)[C@H](C)CC[C@]3(CCC(=O)[C@H]32)[C@@H](C)[C@@H]1O | < 0.015 | 566 | 0.12 (≈ 0.183 µM) | 34.8 | 0.12 (≈ 0.183 µM) | 0.06 (≈ 0.0914 µM) | Non-toxic | 0.12 (≈ 0.183 µM) | Non-toxic | Non-toxic | 164 | 0.5 (≈ 0.761 µM) | 138 | 0.06 (≈ 0.0914 µM) | 0.03 (≈ 0.0457 µM) | 0.03 (≈ 0.0457 µM) | 0.06 (≈ 0.0914 µM) | 0.12 (≈ 0.183 µM) |  |
| C=C[C@]1(C)C[C@@H](OC(=O)Cn2cc(-c3ccc(C(=O)c4ccc5c(N)ncnn45)cn3)nn2)[C@]2(C)[C@H](C)CC[C@]3(CCC(=O)[C@H]32)[C@@H](C)[C@@H]1O |  | > 600 |  | 32.4 |  |  |  |  |  |  | 221 |  | 102 |  | 0.06 (≈ 0.09 µM) |  |  |  |  |
